# In US20230035892A1, “METHODS AND COMPOSITIONS FOR TREATING CANCER” (Flagship Pioneering Innovations V, Inc., priority 2019, published 2023):
# Assays:
# Assay type in all cases: cell-based
# [1] = tested on: sgGrk2-expressing PAXF1657 cells; assay: Colony formation assay in sgGrk2-expressing cells (target specificity)
# Method: To assess the target specificity of the GRK2 small molecule antagonist of Formula III-26, sgGRK2-expressing cells were treated with the compound of Formula III-26. If GRK2 knockout is complete and the compound of Formula III-26 inhibits only GRK2, the addition of the compound of Formula III-26 should not induce any additional growth defect compared to sgRNA KO alone. […] This is potentially due to the lower GRK2 knockout efficiency that can be achieved in PAXF1657 compared to Miapaca2, as shown in Table 16.
# [2] = tested on: PAXF1657 control empty vector; assay: 7-day CellTiter-Glo anti-proliferative assay; settings: PAXF1657, sgNTC, pReceiver-empty vector, 5 or 10 point dose curve
# Method: (§1) Cell lines were seeded into tissue culture treated, white-walled, 96-well plates at a density of 500 cells/well in RPM11640 media supplemented with 10% H.I. FBS and penicillin/streptomycin. Plates were incubated overnight at 37° C., 5% CO2 to allow cells to adhere to the wells. GRK2 small molecule antagonists were added to the cells using a ten-point or five-point dilution series with a final concentration ranging from […] in 0.1% DMSO. At the time of compound addition, a set of plates that were not treated with compounds were collected and cell viability was measured using CellTiter-Glo (Promega). CellTiter-Glo reagent was added to the plates and luminescence was measured using a Biotek Synergy plate reader. The compound treated cells were incubated for 3 days at 37° C., 5% CO2. The media was then aspirated from each well and replaced with fresh media containing GRK2 small molecule antagonists. The compound treated cells were then incubated for another 4 days at 37° C., 5% CO2 and cell viability was assessed at the end of the 7-day compound treatment by CellTiterGlo.
# [3] = tested on: PAXF1657 stably overexpressing GRK2 cDNA; assay: 7-day CellTiter-Glo anti-proliferative assay; settings: PAXF1657, sgNTC, pReceiver-GRK2, 5 or 10 point dose curve
# Method: as §1
# [4] = PAXF1657, 1 μM, sgGRK2-2 (SEQ ID NO: 3)
# [5] = PAXF1657, 1 μM, sgGRK2-3 (SEQ ID NO: 4)
# [6] = PAXF1657, 3 μM, sgGRK2-2 (SEQ ID NO: 3)
# [7] = PAXF1657, 3 μM, sgGRK2-3 (SEQ ID NO: 4)
# [8] = 168 h, read-out: Maximum % Growth inhibition relative to DMSO, geometric mean
structure (smiles),measurement,setting,value
Cn1c(CNc2cccc(C(=O)NCc3ccccc3C(F)(F)F)c2)nnc1-c1ccncc1 [Compound of Formula III-26],Difference between rel +dox and −dox signal,[1]; [4],0.45
same,Rel +dox,[1]; [4],0.44
same,Rel −dox,[1]; [4],0.89
same,Difference between rel +dox and −dox signal,[1]; [5],0.37
same,Rel +dox,[1]; [5],0.40
same,Rel −dox,[1]; [5],0.78
same,Difference between rel +dox and −dox signal,"[1]; PAXF1657, 1 μM, sgGRK2-pooled",0.29
same,Rel +dox,"[1]; PAXF1657, 1 μM, sgGRK2-pooled",0.49
same,Rel −dox,"[1]; PAXF1657, 1 μM, sgGRK2-pooled",0.78
same,Difference between rel +dox and −dox signal,"[1]; PAXF1657, 1 μM, sgNTC",−0.04
same,Rel +dox,"[1]; PAXF1657, 1 μM, sgNTC",0.78
same,Rel −dox,"[1]; PAXF1657, 1 μM, sgNTC",0.73
same,Difference between rel +dox and −dox signal,[1]; [6],0.26
same,Rel +dox,[1]; [6],0.41
same,Rel −dox,[1]; [6],0.67
same,Difference between rel +dox and −dox signal,[1]; [7],0.32
same,Rel +dox,[1]; [7],0.22
same,Rel −dox,[1]; [7],0.55
same,Difference between rel +dox and −dox signal,"[1]; PAXF1657, 3 μM, sgGRK2-pooled",0.11
same,Rel +dox,"[1]; PAXF1657, 3 μM, sgGRK2-pooled",0.48
same,Rel −dox,"[1]; PAXF1657, 3 μM, sgGRK2-pooled",0.59
same,Difference between rel +dox and −dox signal,"[1]; PAXF1657, 3 μM, sgNTC",0.01
same,Rel +dox,"[1]; PAXF1657, 3 μM, sgNTC",0.56
same,Rel −dox,"[1]; PAXF1657, 3 μM, sgNTC",0.57
same,Emax,[2]; [8],61%
same,GI50,"[2]; read-out: GI50, geometric mean",9.49 µM
same,Emax,[3]; [8],24.8%
same,GI50,"[3]; read-out: GI50, geometric mean",> 10 µM
